Test results taken from ChEMBL document CHEMBL5696442, “Discovery of type II inhibitors of TGFβ-activated kinase 1 (TAK1) and mitogen-activated protein kinase kinase kinase kinase 2 (MAP4K2)” (J Med Chem, 2015).
Activity calls are given as the source filed them. The rule behind the calls is not given here.

How the values were obtained:
[1] = biological target: Tyrosine-protein kinase Fes/Fps (Homo sapiens, UniProt P07332); assay: Inhibition of FES K1 labeling site in human Huh-7 cells at 10 uM by KiNativ Profiling analysis relative to control; assay type: cell-based
Sequence of Tyrosine-protein kinase Fes/Fps (P07332 whole entry): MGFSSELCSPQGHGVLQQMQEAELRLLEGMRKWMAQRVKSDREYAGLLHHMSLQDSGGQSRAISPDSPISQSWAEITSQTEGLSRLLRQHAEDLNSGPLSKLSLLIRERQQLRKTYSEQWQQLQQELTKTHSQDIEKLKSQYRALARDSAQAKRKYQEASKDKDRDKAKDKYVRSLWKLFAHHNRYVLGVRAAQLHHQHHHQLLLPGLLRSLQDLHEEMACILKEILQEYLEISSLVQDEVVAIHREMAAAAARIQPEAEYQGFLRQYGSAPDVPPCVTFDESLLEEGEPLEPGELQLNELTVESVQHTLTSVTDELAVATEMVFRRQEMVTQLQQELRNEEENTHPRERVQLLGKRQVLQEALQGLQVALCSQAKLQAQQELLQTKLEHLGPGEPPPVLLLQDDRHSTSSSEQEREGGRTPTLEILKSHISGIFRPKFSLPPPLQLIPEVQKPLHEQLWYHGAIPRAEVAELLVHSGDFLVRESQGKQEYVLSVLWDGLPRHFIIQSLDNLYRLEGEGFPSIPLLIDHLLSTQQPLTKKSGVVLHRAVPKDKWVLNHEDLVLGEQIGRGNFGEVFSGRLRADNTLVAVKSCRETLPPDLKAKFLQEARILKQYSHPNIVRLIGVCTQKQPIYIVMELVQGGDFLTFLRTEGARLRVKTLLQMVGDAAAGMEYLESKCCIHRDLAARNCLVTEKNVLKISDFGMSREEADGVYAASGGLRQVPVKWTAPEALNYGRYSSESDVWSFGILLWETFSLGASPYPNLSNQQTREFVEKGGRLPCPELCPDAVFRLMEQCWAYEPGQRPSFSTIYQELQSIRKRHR

[2] = biological target: Cyclin-dependent kinase 14 (Homo sapiens) (UniProt O94921); assay: Inhibition of PFTAIRE1 Lys2 labeling site in human A-375 cells at 5 uM by KiNativ Profiling analysis relative to control
[3] = biological target: Phosphatidylinositol 4-phosphate 3-kinase C2 domain-containing subunit beta (Homo sapiens) (UniProt O00750); assay: Inhibition of PIK3C2B ATP labeling site in human Huh-7 cells at 1 uM by KiNativ Profiling analysis relative to control; assay type: cell-based
Sequence of Phosphatidylinositol 4-phosphate 3-kinase C2 domain-containing subunit beta (Homo sapiens) (O00750 whole entry, the tested form may be a part): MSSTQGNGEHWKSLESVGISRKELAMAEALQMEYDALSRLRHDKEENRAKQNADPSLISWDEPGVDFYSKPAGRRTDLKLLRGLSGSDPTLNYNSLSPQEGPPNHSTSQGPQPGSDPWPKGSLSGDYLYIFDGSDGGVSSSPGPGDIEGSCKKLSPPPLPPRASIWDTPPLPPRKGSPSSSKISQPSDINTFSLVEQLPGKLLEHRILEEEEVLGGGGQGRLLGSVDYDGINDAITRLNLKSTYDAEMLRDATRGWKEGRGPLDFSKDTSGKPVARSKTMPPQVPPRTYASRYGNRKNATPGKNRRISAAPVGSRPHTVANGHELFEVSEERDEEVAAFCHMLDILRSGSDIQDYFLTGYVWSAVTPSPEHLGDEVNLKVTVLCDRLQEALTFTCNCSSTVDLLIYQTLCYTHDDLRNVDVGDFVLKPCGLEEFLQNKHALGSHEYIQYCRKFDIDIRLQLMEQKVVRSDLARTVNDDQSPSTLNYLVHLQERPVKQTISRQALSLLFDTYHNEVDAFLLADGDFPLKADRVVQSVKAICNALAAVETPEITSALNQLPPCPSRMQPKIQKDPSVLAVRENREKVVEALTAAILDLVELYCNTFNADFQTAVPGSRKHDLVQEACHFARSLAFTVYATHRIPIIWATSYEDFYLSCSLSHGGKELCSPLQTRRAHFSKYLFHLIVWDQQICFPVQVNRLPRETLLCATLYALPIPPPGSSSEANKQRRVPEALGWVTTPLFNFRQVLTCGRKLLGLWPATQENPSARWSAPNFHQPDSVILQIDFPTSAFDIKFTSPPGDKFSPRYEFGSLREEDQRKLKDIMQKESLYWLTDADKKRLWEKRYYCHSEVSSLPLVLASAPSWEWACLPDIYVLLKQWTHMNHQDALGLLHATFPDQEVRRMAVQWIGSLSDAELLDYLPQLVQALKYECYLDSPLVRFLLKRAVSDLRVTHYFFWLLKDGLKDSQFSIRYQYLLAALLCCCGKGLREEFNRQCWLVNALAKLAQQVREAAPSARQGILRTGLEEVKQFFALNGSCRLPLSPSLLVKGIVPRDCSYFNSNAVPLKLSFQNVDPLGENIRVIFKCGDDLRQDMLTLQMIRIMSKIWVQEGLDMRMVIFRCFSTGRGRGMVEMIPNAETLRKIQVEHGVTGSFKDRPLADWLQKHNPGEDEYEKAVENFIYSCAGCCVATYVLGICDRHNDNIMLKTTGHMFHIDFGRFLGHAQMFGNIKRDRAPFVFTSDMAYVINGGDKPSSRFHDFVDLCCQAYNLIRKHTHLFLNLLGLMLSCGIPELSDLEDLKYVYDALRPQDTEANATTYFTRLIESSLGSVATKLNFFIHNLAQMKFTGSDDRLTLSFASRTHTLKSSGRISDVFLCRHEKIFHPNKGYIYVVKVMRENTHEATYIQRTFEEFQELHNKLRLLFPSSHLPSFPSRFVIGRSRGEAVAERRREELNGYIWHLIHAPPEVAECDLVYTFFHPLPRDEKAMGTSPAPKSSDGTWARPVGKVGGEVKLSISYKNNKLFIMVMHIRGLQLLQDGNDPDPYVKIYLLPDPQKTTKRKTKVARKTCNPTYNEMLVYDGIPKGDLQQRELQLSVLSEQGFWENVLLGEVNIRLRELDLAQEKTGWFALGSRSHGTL

[4] = biological target: Ribosomal protein S6 kinase alpha-3 (Homo sapiens) (UniProt P51812); assay: Inhibition of N-terminal RPS6KA3 kinase domain 1 (unknown origin) at 10 uM by Ambit Kinomescan binding assay
Sequence of Ribosomal protein S6 kinase alpha-3 (Homo sapiens) (P51812 whole entry, the tested form may be a part): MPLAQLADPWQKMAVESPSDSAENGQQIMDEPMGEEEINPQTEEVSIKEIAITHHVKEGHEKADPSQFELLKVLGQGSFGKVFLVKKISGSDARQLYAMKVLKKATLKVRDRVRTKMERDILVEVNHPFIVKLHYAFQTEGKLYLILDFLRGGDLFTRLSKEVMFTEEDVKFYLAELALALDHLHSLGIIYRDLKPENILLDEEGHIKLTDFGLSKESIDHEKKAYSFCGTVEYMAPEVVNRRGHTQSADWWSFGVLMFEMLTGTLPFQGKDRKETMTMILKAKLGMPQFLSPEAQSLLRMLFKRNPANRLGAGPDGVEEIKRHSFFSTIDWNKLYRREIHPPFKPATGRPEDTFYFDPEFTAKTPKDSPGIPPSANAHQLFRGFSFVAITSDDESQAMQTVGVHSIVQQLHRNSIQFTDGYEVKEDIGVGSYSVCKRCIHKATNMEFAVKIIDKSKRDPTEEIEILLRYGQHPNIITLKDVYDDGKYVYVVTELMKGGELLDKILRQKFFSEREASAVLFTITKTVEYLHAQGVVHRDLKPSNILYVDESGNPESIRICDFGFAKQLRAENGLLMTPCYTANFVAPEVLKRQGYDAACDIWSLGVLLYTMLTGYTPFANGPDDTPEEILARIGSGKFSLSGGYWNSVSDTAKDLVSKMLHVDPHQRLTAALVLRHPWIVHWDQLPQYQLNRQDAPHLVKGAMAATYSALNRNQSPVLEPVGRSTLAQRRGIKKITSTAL

[5] = biological target: RAC-beta serine/threonine-protein kinase (Homo sapiens) (UniProt P31751); assay: Inhibition of AKT2 (unknown origin) at 10 uM by Ambit Kinomescan binding assay
[6] = biological target: Tyrosine-protein kinase ABL (Homo sapiens) (UniProt P00519+P42684); assay: Inhibition of ABL1/2 K1 labeling site in human Huh-7 cells at 10 uM by KiNativ Profiling analysis relative to control; assay type: cell-based
[7] = biological target: Serine/threonine-protein kinase Nek4 (Homo sapiens) (UniProt P51957); assay: Inhibition of NEK4 Lys2 labeling site in human A-375 cells at 0.05 uM by KiNativ Profiling analysis relative to control; assay type: cell-based
Sequence of Serine/threonine-protein kinase Nek4 (Homo sapiens) (P51957 whole entry, looked up, canonical isoform): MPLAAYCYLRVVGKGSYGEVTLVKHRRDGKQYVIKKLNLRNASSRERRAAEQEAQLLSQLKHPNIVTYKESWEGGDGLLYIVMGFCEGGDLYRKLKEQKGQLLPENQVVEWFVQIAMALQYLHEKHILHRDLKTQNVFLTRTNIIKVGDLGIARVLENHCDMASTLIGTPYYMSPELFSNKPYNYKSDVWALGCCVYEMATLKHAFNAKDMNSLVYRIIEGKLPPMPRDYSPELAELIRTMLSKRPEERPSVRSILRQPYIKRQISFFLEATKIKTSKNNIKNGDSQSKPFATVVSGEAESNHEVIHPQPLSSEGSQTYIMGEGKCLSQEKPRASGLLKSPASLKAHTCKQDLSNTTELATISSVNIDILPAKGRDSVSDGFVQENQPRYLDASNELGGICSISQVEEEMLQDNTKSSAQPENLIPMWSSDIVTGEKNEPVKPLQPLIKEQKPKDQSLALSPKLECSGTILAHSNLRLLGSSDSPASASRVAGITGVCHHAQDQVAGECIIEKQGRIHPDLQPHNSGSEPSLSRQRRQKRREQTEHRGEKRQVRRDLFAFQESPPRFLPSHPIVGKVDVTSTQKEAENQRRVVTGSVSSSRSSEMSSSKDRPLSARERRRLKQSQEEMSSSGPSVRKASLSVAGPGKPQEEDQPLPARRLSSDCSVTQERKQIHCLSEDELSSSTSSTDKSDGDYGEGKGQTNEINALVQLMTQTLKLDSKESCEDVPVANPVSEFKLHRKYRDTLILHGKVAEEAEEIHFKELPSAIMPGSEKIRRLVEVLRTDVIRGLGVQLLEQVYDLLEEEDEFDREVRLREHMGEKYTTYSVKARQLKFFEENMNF

[8] = biological target: TGF-beta receptor type-1 (Homo sapiens) (UniProt P36897); assay: Inhibition of TGFBR1 (unknown origin) at 10 uM by Ambit Kinomescan binding assay
Sequence of TGF-beta receptor type-1 (Homo sapiens) (P36897 whole entry): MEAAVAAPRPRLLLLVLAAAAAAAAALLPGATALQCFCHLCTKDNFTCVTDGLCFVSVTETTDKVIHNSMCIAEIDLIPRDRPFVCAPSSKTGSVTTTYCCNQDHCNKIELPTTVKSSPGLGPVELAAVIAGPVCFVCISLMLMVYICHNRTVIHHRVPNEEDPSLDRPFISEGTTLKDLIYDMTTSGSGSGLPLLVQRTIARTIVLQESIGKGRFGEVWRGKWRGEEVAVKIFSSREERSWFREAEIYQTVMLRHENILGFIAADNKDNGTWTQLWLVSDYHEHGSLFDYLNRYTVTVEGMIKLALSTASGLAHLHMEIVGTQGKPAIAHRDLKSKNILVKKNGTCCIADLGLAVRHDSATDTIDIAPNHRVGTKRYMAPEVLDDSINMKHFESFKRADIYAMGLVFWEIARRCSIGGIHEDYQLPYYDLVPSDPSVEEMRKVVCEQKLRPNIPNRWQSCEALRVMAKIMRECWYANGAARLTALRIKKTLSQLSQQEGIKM

[9] = test system: Tyrosine-protein kinase ABL1 (Homo sapiens), P00519 [Q252H]; assay: Inhibition of nonphosphorylated ABL1 Q252H mutant (unknown origin) at 1 uM by Ambit Kinomescan binding assay relative to control
[10] = biological target: Cyclin-dependent kinase 6 (Homo sapiens) (UniProt Q00534); assay: Inhibition of CDK6 Lys2 labeling site in human A-375 cells at 0.05 uM by KiNativ Profiling analysis relative to control; assay type: cell-based
[11] = biological target: Cyclin-dependent kinase 2 homolog (Plasmodium falciparum (isolate K1 / Thailand)) (UniProt Q07785); assay: Inhibition of Plasmodium falciparum PK5 at 1 uM by Ambit Kinomescan binding assay relative to control; values are per cent of control
Sequence of Cyclin-dependent kinase 2 homolog (Plasmodium falciparum (isolate K1 / Thailand)) (Q07785 whole entry): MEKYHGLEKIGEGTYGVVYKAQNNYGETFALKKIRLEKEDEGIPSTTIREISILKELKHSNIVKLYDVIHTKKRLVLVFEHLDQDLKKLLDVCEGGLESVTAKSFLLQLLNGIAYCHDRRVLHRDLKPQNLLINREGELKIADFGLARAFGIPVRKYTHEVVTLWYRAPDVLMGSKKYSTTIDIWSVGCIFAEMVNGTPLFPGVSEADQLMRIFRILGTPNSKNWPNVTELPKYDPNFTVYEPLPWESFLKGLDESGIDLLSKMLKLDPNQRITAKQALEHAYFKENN

[12] = biological target: T1, Serine/threonine-protein kinase ULK3 (Homo sapiens) (UniProt Q6PHR2); assay: Inhibition of ULK3 (unknown origin) at 1 uM by Ambit Kinomescan binding assay relative to control
T1 sequence (whole entry): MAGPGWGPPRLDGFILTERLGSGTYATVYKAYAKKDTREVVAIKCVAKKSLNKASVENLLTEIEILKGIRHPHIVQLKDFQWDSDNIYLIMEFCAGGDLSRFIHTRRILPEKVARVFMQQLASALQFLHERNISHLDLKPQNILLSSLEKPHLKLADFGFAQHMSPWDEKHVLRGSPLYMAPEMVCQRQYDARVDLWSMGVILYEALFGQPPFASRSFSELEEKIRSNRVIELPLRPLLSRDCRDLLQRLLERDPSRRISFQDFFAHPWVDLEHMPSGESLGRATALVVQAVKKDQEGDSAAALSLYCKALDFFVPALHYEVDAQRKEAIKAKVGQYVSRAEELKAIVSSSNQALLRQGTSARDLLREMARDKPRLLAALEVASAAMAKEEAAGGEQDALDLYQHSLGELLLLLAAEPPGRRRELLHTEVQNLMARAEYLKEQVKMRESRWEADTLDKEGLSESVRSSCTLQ

[13] = test system: Mast/stem cell growth factor receptor Kit (Homo sapiens), P10721 [D816H]; assay: Inhibition of KIT D816H mutant (unknown origin) at 1 uM by Ambit Kinomescan binding assay relative to control; values are per cent of control
[14] = biological target: Serine/threonine-protein kinase Nek4 (Homo sapiens) (UniProt P51957); assay: Inhibition of NEK4 Lys2 labeling site in human Huh-7 cells at 1 uM by KiNativ Profiling analysis relative to control; assay type: cell-based
[15] = biological target: Casein kinase I isoform epsilon (Homo sapiens) (UniProt P49674); assay: Inhibition of CK1e Lys2 labeling site in human Huh-7 cells at 1 uM by KiNativ Profiling analysis relative to control; assay type: cell-based
[16] = biological target: Casein kinase I isoform alpha (Homo sapiens) (UniProt P48729); assay: Inhibition of CK1alpha Lys2 labeling site in human Huh-7 cell lysate at 1 uM by KiNativ Profiling analysis relative to control; assay type: subcellular
[17] = biological target: T2, Interleukin-1 receptor-associated kinase 4 (Homo sapiens) (UniProt Q9NWZ3); assay: Inhibition of IRAK4 Lys2 labeling site in human Huh-7 cell lysate at 1 uM by KiNativ Profiling analysis relative to control; assay type: subcellular
T2 sequence (whole entry): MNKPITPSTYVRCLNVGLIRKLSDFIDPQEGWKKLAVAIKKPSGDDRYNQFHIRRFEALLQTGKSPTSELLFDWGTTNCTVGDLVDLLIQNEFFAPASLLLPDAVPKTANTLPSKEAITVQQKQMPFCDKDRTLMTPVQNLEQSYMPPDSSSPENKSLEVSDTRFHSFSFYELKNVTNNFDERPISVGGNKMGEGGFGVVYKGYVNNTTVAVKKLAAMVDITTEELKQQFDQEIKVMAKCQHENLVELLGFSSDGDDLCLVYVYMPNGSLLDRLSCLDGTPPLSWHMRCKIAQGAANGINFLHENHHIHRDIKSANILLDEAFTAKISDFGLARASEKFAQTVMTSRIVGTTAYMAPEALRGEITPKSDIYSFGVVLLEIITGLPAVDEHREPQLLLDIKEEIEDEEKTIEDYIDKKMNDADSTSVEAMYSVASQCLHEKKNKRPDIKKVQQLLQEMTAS

Question: Which results are given for CCN1CCN(Cc2ccc(NC(=O)c3ccc(C)c(Oc4ccnc5[nH]ccc45)c3)cc2C(F)(F)F)CC1?
Answer: inhibition [1]: 72.6%; inhibition [2]: 77.8%; inhibition [3]: -9.4%; inhibition [4]: inactive; inhibition [5]: inactive; inhibition [6]: 96%; inhibition [7]: 15.2%; inhibition [8]: inactive

Question: How did the inhibition [9] turn out when CCN1CCN(Cc2ccc(NC(=O)c3ccc(C)c(/C=C/c4cnc5[nH]ccc5c4OC)c3)cc2C(F)(F)F)CC1 was run?
Answer: 1.4%

Question: What about the inhibition [10] of the same compound?
Answer: 5.5%

Question: And the residual activity [11]?
Answer: 100%

Question: And the inhibition [12]?
Answer: 55%

Question: And the residual activity [13]?
Answer: 25%

Question: Which results are given for CNc1cc(Oc2cc(C(=O)Nc3cc(N4CCN(C)CC4)cc(C(F)(F)F)c3)ccc2C)ncn1?
Answer: inhibition [14]: 43.4%; inhibition [15]: 39.1%; inhibition [16]: 3.8%; inhibition [17]: 8.4%
